Measurements as given in patent publication US20230265098A1, “ALKYNE QUINAZOLINE DERIVATIVES AS INHIBITORS OF ERBB2” (EnLiven Therapeutics, Inc., priority 2020, published 2023).

Key:
[1] = biological target: T1, Ba/F3 ERBB2-L869R (Homo sapiens, UniProt P04626, L869R, cells depend on it); assay: Cell viability assay (CellTiter Glo); format: cell-based, mouse; details: 72 hours; 3000 cells per well, 96-well plates; read-out: Cell viability IC50, nM, Ba/F3 ERBB2-L869R
T1 construct: Ba/F3 cell lines were engineered to express human ERBB2 or EGFR kinases, rendering the cells IL-3 independent
T1 sequence (P04626 whole entry L869R): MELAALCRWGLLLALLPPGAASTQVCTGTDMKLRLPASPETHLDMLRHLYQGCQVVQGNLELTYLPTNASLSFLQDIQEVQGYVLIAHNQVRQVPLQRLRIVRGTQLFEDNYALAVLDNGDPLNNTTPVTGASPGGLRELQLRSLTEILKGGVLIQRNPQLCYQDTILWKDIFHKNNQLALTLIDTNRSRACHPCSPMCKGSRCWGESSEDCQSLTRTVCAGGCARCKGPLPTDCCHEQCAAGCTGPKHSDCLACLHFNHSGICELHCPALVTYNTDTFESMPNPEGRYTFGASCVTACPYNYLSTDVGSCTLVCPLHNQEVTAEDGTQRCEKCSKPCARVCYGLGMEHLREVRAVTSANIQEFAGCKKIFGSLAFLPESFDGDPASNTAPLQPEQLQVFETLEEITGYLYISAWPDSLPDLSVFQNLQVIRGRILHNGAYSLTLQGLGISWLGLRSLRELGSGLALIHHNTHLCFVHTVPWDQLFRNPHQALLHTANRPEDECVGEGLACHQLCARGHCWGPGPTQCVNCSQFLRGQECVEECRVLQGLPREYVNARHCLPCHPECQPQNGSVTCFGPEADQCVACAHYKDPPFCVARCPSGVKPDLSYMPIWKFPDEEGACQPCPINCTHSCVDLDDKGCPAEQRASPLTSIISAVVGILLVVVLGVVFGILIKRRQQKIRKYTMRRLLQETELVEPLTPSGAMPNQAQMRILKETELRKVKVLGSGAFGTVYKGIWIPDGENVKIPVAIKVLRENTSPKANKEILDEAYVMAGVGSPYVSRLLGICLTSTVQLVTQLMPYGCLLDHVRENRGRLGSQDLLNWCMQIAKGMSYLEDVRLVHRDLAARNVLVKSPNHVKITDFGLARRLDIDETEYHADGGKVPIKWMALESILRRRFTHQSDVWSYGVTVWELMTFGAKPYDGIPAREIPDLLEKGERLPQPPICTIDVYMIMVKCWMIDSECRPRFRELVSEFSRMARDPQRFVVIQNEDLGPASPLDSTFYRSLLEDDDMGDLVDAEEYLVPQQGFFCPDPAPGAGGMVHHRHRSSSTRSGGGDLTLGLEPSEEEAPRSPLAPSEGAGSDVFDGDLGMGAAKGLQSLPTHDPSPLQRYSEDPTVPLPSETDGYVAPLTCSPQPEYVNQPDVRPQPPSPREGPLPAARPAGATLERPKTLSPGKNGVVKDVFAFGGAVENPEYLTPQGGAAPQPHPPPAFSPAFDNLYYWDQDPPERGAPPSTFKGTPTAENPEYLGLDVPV
Method in brief: (§1)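 Murine Ba/F3 cells made IL-3-independent by retroviral human EGFR or ERBB2 were seeded at 3000 or 300 cells per well and exposed to serially diluted compound (DMSO ≤0.1%) for 72 hours at 37° C, 5% CO2. CellTiter Glo luminescence was normalised to DMSO and media-only controls and fitted to a sigmoidal dose-response.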

[2] = biological target: T2, Ba/F3 EGFR wt (Homo sapiens, UniProt P00533); assay: Cell viability assay (CellTiter Glo); format: cell-based, mouse; details: 72 hours; 3000 cells per well, 96-well plates; read-out: Cell viability IC50, nM, Ba/F3 EGFR wt
T2 construct: Ba/F3 cell lines were engineered to express human ERBB2 or EGFR kinases, rendering the cells IL-3 independent
Method in brief: as §1

[3] = biological target: ERBB2 (R896C) (Homo sapiens, UniProt P04626, R896C); assay: Reaction Biology kinase activity assay (33P-ATP, HotSpot); format: biochemical; details: final enzyme concentration 200 nM; 100 μM 33P-ATP; 20 min preincubation, 2 hours at 25° C.
Experimental: (§2) Inhibition of kinase activity was assessed using a kinase activity assay (Anastassiadis, T. et al. Nat Biotechnol 2011 29: 1039-1045). In particular, substrate (poly Glu-Tyr sodium salt (Sigma Aldrich, cat #P7244)) was freshly prepared in reaction buffer (20 mM Hepes (pH 7.5), 10 mM MgCl2, 1 mM EGTA, 0.02% Brij35, 0.02 mg/ml BSA, 0.1 mM Na3VO4, 2 mM DTT, 1% DMSO). EGFR, ERBB2 or ERBB2 mutant kinases were added to the substrate solution and mixed at the final concentrations in Table B1, below. Compounds were dissolved in 100% DMSO and the resulting solutions were added to the kinase reaction mixture. The kinase reaction mixture was incubated with the compounds for 20 minutes at room temperature. 100 μM ^33P-ATP (Specific activity 10 μCi/μl) was then added to initiate the reaction. This mixture was incubated for 2 hours at 25° C.
(§3) Reactions were spotted onto P81 ion exchange filter paper (Whatman). Unbound phosphate was removed by extensive washing of filters in 0.75% phosphoric acid. Radioactivity was detected using a HotSpot, a proprietary technology of Reaction Biology Corporation (Anastassiadis, T. et al., Nat Biotechnol. 2011 29(11):1039-45). Kinase activity data were expressed as the percentage kinase activity remaining in test samples relative to vehicle only (i.e., DMSO only) control reactions. IC50 values and curve fits were obtained using Prism (GraphPad Software), using a nonlinear regression model with a sigmoidal dose response and are shown in Table B1.

[4] = biological target: ERBB2 (V777_G778insCG) (Homo sapiens, UniProt P04626, INS777CG); assay: as above; format: biochemical; details: final enzyme concentration 100 nM; 100 μM 33P-ATP; 20 min preincubation, 2 hours at 25° C.
Experimental: as §2, §3

[5] = biological target: ERBB2 (P1170A) (Homo sapiens, UniProt P04626, P1170A); assay: as above; format: biochemical; details: final enzyme concentration 20 nM; 100 μM 33P-ATP; 20 min preincubation, 2 hours at 25° C.
Chain of ERBB2 (P1170A) (P04626 23-1255 P1170A): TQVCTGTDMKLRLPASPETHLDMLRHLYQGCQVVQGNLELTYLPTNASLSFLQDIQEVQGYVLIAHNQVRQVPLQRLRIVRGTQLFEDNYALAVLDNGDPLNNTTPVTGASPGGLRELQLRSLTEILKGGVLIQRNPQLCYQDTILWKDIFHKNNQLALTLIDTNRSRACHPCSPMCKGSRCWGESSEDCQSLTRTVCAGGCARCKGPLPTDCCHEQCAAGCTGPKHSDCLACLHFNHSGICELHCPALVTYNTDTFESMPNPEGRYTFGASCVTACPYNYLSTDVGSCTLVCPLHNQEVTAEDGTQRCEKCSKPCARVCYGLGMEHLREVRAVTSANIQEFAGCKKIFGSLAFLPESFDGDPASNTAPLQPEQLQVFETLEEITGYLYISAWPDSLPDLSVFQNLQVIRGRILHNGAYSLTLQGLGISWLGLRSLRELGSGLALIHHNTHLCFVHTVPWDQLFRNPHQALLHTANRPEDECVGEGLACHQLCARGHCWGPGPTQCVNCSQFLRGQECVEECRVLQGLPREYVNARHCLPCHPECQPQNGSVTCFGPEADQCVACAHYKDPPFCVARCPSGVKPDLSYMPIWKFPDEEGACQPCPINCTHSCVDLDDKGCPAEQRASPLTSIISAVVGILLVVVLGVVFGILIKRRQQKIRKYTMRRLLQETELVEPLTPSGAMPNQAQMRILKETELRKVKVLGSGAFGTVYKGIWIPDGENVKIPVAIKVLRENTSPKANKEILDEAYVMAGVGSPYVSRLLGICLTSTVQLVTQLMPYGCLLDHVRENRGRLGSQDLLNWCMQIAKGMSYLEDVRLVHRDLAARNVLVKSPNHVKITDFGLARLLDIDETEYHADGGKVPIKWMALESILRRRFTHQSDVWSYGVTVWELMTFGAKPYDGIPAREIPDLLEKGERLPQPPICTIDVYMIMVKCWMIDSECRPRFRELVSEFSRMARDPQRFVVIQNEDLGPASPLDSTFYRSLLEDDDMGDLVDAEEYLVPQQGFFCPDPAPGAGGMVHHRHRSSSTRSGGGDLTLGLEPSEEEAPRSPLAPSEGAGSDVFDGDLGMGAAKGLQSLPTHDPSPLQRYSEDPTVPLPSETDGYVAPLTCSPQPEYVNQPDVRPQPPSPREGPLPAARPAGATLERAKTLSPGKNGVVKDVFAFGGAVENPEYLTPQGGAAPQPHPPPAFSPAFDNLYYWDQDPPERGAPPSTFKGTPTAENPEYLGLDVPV
Experimental: as §2, §3

[6] = biological target: ERBB2 (D769Y) (Homo sapiens, UniProt P04626, D769Y); assay: as above; format: biochemical; details: final enzyme concentration 15 nM; 100 μM 33P-ATP; 20 min preincubation, 2 hours at 25° C.
Experimental: as §2, §3

[7] = biological target: EGFR (Homo sapiens, UniProt P00533); assay: as above; format: biochemical; details: final enzyme concentration 3 nM; 100 μM 33P-ATP; 20 min preincubation, 2 hours at 25° C.
Experimental: as §2, §3

[8] = biological target: ERBB2 (D769H) (Homo sapiens, UniProt P04626, D769H); assay: as above; format: biochemical; details: final enzyme concentration 150 nM; 100 μM 33P-ATP; 20 min preincubation, 2 hours at 25° C.
Chain of ERBB2 (D769H) (P04626 23-1255 D769H): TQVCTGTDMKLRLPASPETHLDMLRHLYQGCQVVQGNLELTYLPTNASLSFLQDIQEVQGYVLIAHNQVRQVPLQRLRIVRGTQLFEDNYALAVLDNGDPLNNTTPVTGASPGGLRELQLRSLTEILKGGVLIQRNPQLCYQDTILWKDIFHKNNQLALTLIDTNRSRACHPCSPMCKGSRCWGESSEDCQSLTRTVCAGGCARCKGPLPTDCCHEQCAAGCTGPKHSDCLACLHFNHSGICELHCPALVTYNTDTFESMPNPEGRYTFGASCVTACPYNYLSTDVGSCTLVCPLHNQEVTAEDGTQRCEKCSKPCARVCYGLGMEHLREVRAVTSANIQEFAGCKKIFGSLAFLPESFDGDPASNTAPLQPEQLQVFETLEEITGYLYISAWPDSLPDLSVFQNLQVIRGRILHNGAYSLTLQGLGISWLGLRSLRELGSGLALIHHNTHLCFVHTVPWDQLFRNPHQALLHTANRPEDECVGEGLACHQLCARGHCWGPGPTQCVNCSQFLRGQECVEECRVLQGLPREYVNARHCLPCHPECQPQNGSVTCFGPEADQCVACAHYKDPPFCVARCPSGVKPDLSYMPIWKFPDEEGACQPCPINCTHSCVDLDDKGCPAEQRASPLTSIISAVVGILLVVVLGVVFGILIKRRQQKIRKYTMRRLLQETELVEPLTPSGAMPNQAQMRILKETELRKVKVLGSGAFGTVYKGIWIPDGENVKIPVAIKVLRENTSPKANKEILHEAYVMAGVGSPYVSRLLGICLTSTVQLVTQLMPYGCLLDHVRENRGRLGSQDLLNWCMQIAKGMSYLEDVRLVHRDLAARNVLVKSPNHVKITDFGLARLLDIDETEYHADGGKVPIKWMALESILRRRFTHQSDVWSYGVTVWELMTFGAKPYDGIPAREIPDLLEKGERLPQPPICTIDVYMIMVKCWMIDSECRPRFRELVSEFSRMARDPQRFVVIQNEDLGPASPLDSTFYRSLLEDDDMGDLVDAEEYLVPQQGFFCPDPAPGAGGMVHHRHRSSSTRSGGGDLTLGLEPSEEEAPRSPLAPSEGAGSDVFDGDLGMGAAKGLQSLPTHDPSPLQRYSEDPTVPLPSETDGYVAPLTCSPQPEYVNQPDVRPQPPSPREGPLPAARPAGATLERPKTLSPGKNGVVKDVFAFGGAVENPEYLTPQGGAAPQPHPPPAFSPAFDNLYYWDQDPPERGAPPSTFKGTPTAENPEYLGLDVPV
Experimental: as §2, §3

[9] = biological target: ERBB2 (V777L) (Homo sapiens, UniProt P04626, V777L); assay: as above; format: biochemical; details: final enzyme concentration 40 nM; 100 μM 33P-ATP; 20 min preincubation, 2 hours at 25° C.
Experimental: as §2, §3

[10] = biological target: ERBB2/HER2 (Homo sapiens, UniProt P04626); assay: as above; format: biochemical; details: final enzyme concentration 50 nM; 100 μM 33P-ATP; 20 min preincubation, 2 hours at 25° C.
Chain of ERBB2/HER2 (P04626 23-1255): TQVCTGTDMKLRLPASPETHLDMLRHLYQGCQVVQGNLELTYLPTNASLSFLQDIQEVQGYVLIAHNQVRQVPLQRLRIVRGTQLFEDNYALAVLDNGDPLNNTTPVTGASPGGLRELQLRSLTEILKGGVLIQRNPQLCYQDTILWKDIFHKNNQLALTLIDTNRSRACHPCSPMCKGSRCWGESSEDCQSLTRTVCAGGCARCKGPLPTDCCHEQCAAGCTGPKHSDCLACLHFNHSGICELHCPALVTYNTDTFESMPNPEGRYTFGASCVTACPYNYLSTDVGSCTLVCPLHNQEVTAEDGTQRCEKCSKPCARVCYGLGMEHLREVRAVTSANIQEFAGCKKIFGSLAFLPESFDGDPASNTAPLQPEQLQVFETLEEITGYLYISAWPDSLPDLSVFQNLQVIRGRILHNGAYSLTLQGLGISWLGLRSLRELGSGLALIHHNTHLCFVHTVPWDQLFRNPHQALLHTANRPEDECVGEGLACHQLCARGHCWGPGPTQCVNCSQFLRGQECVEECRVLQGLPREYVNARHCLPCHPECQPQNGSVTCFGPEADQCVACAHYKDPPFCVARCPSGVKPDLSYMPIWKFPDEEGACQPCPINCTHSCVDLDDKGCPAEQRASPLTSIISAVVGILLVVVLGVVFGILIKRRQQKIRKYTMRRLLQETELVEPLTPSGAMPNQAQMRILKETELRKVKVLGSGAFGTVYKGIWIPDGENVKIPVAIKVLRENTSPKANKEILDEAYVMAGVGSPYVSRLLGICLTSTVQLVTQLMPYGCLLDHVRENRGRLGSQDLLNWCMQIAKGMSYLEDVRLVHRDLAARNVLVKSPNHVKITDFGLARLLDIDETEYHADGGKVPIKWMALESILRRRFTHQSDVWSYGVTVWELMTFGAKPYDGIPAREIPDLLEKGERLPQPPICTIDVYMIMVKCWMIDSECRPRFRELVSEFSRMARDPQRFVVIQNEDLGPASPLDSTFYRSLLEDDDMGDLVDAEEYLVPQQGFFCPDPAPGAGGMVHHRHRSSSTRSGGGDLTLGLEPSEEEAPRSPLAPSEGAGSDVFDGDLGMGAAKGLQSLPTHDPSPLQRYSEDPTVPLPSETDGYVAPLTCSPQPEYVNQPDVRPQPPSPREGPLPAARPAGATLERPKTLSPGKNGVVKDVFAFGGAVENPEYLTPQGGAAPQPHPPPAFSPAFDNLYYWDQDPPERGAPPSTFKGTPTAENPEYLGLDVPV
Experimental: as §2, §3

[11] = tested on: A431 cells; assay: Cell viability assay (CellTiter Glo); format: cell-based; details: Homo sapiens, A-431; 72 hours; 1500 cells per well, 384-well; DMEM + 10% FBS
Experimental: (§4) Cells were treated with compounds, and cell viability was measured as a metric of kinase inhibition.
(§5) The Ba/F3 cell line is IL-3-dependent mouse cell line derived from the C3H mouse strain. Ba/F3 cell lines were engineered to express human ERBB2 or EGFR kinases, rendering the cells IL-3 independent. The lines were generated via retroviral transduction utilizing a Moloney murine leukemia virus (MMLV) promoter, and constructs are stably integrated into the cell genome.
(§6) Similarly, Ba/F3 cell lines engineered to express EGFR, ERBB2, or ERBB2 mutants were grown, harvested, counted and seeded at 3000 cells per well in 96-well plates for the data sets shown in Tables B3-B4, and seeded at 300 cells per well in 384-well plates for the data set shown in Table B5. A subset of wells contained media only (low control, “LC”).
(§7) Table B2 provides the growth media and number of cells seeded per well for the each cell line.
(§8) Compounds were dissolved in DMSO and serially diluted. Serially-diluted compound or a DMSO only control (high control, “HC”) was added to the plated cells in each well. […] The final proportion of DMSO never exceeded 0.1%.
(§9) Plates were placed in a 37° C., 5% CO2 incubator for 72 hours. Plates were then removed from the incubator and equilibrated for 15 minutes at room temperature. 40 IA of CellTiter Glo reagent (Promega) was added to measure the relative level of metabolically active cells by quantifying intracellular ATP concentrations. Plates were incubated for 30 minutes at room temperature, and luminescence was measured. Percent viability was normalized to a vehicle control only using the following formula: % viability=100×(LumSample−LumLC) (LumHC−LumLC). Graphical curves were fitted using a nonlinear regression model with a sigmoidal dose response.

[12] = tested on: MDA-MB-175VII cells; assay: Cell viability assay (CellTiter Glo); format: cell-based; details: Homo sapiens, 72 hours, 2000 cells per well, 384-well, RPMI + 10% FBS
Experimental: as §4, §5, §6, §7, §8, §9

[13] = tested on: BT-474 cells; assay: Cell viability assay (CellTiter Glo); format: cell-based; details: Homo sapiens, 72 hours, 2000 cells per well, 384-well, DMEM + 10% FBS
Experimental: as §4, §5, §6, §7, §8, §9

Q: What does the source list for `CC#CC(=O)Nc1ccc2ncnc(Nc3ccc(Oc4ccn5ncnc5c4)c(C)c3)c2c1` [Compound 1, N-[4-[(3-methyl-4-[[1,2,4]triazolo[1,5-a]pyridin-7-yloxy]phenyl)amino]quinazolin-6-yl]but-2-ynamide]?
A: GI50 [1]: < 1 nM; GI50 [2]: 2750 nM; IC50 [3]: 2.29 nM; IC50 [4]: 0.97 nM; IC50 [5]: 0.68 nM; IC50 [6]: 1.56 nM; IC50 [7]: 58 nM; IC50 [8]: 1.04 nM; IC50 [9]: 1.38 nM; IC50 [10]: 0.49 nM; IC50 [11]: 1730 nM; IC50 [12]: 9 nM; IC50 [13]: 3.89 nM

Q: How did the GI50 [1] turn out when `CC#CC(=O)Nc1cc2c(Nc3ccc(Oc4ccn5ncnc5c4)c(C)c3)ncnc2cc1OCCN(C)C` [Compound 150, N-[7-[2-(dimethylamino)ethoxy]-4-[(3-methyl-4-[[1,2,4]triazolo[1,5-a]pyridin-7-yloxy]phenyl)amino]quinazolin-6-yl]but-2-ynamide] was run?
A: 4.31 nM

Q: Which GI50 [1] does the source give for `Cc1cc(Nc2ncnc3ccc(NC4=NC(C)(C)CO4)cc23)ccc1Oc1ccn2ncnc2c1` [Tucatinib, tucatinib, reference compound] here?
A: 63.5 nM

Q: What about the GI50 [2] of the same compound?
A: > 10000 nM

Q: What about the IC50 [3] of the same compound?
A: 2.95 nM

Q: And the IC50 [4]?
A: 4.43 nM

Q: And the IC50 [5]?
A: 3.99 nM

Q: What about the IC50 [6] of the same compound?
A: 13.7 nM

Q: What about the IC50 [7] of the same compound?
A: 954 nM

Q: What about the IC50 [8] of the same compound?
A: 5 nM

Q: And the IC50 [9]?
A: 4.3 nM

Q: What about the IC50 [10] of the same compound?
A: 3.07 nM

Q: And the IC50 [11]?
A: > 10000 nM

Q: And the IC50 [12]?
A: 89 nM

Q: What about the IC50 [13] of the same compound?
A: 41.8 nM
